pIC50: −log10 of the molar value. “And” between values parts separate entries of the source, which are not always exact repeats. Identical values can stand only once.
Columns and labels:
HDAC1 = biological target: T1, HDAC1 (Homo sapiens, UniProt Q13547); experiment: In vitro HDAC profiling (deacetylation assay), HDAC1; type: biochemical; settings: for HDAC Activity (Fluorescent counts): Repeat1/Repeat 2
T1 construct: purchased BPS Bioscience #50051-11
Experimental: (§1) HDAC profiling was performed at BPS Bioscience (San Diego, CA). All of the compounds are dissolved in DMSO. A series of dilutions of the compounds were prepared with 10% DMSO in HDAC assay buffer (#50031) and 5 µl of the dilution was added to a 50 µl reaction so that the final concentration of DMSO is 1% in all of reactions. All of the enzymatic reactions were conducted in duplicate at 37 °C for 30 mins, except that the enzyme reactions for HDAC11 were at room temperature for 3 hrs. All of the reactions were performed in a 50 µl mixture containing HDAC assay buffer, 5 µg BSA, an HDAC substrate [HDAC Substrate 3 (BPS number 50037) or HDAC Class 2a Substrate 1 (BPS number 50040)], an HDAC enzyme (#50051-11) and a test compound. After enzymatic reactions, 50 μl of HDAC Developer (#50030) was added to each well and the plate was incubated at room temperature for an additional 20 mins. Fluorescence intensity was measured at an excitation of 360 nm and an emission of 460 nm using a Tecan Infinite M1000 microplate reader. HDAC activity assays were performed in duplicates at each concentration. The fluorescent intensity data were analyzed using the computer software, Graphpad Prism. In the absence of the compound, the fluorescent intensity (Ft) in each data set was defined as 100% activity. In the absence of HDAC, the fluorescent intensity (Fb) in each data set was defined as 0% activity. The percent activity in the presence of each compound was calculated according to the following equation: %activity = (F − Fb)/(Ft − Fb), where F = the fluorescent intensity in the presence of the compound. The values of % activity versus a series of compound concentrations were then plotted using non-linear regression analysis of Sigmoidal dose-response curve generated with the equation Y = B + (T − B)/1 + 10((LogIC50 − X) × Hill Slope), where Y = percent activity, B = minimum percent activity, T = maximum percent activity, X = logarithm of compound and Hill Slope = slope factor or Hill coefficient. The IC50 value was determined by the concentration causing a half-maximal percent activity.

HDAC2 = biological target: T2, HDAC2 (Homo sapiens, UniProt Q92769); experiment: In vitro HDAC profiling (deacetylation assay), HDAC2; type: biochemical; settings: for HDAC Activity (Fluorescent counts): Repeat1/Repeat 2
T2 construct: purchased BPS Bioscience #50051-11
Experimental: as §1

HDAC9 = biological target: T3, HDAC9 (Homo sapiens, UniProt Q9UKV0); experiment: In vitro HDAC profiling (deacetylation assay), HDAC9; type: biochemical; settings: for HDAC Activity (Fluorescent counts): Repeat1/Repeat 2
T3 construct: purchased BPS Bioscience #50051-11
Experimental: as §1

[1] = system: SHH-induced GLI activity (GLI-BS reporter) in NIH3T3; experiment: HH pathway reporter (GLI-BS reporter) assay, +Shh in NIH3T3; type: cell-based; settings: Mus musculus; +Shh in NIH3T3, 48 hrs with compound
Experimental: (§2) The HH-responsive firefly luciferase reporter (GLI-BS) and a control Renilla luciferase reporter (SV40-RL) were transfected into indicated cell lines using Effectene (Qiagen) either alone or with indicated DNAs. 24 hrs after transfection, cells were switched to low serum media (3% calf serum), and grown for another 48 hrs. in 5% CO2 in the presence/absence of compounds. 3T3-ShhFL cell line that stably expressing SHH and the two reporters were cultured in a similar fashion. FL and RL activities in lysate generated using Passive Lysis Buffer (Promega) were then assessed using the Dual-Luciferase kit (Promega) and a 96-well plate reading luminometer (BMG). The ratio of FL/RL was calculated and the averaged ratios from three replicates were reported.

[2] = system: RMS13 cells (GLI1 amp), GLI-BS reporter; experiment: GLI-BS reporter assay in RMS13 cells (GLI1 amplification); type: cell-based
Experimental: as §2

[3] = system: GLI1 binding to DNA in RMS13 cells; experiment: GLI DNA binding assay (biotinylated oligo pulldown); type: cell-based; settings: lysate of RMS13 cells treated 48 hrs
Experimental: A detailed protocol for DNA binding assay was previously described. Briefly, cells treated for 48 hrs with compounds were lysed in 1% NP40/phosphate buffered saline/protease inhibitors and cleared using a microcentrifuge. The lysate was then incubated with 0.5 µM of double-strand biotinylated oligonucleotides and 40 µl streptavidin-agarose bead suspension (Thermo Scientific, 20349) for 2 hrs. The streptavidin agarose beads are washed (3X) with 1% NP40/phosphate buffered saline/protease inhibitors and eluted with 2X Laemmli sample buffer. The supernatants are separated on SDS-PAGE and analyzed using western blotting. Antibodies were purchased from the following vendors: GLI1 (Cell Signaling Technology, #2534) and actin (SIGMA, #A5441).

[4] = in vitro deacetylation assay, duplicates

T1 sequence (Q13547 whole entry): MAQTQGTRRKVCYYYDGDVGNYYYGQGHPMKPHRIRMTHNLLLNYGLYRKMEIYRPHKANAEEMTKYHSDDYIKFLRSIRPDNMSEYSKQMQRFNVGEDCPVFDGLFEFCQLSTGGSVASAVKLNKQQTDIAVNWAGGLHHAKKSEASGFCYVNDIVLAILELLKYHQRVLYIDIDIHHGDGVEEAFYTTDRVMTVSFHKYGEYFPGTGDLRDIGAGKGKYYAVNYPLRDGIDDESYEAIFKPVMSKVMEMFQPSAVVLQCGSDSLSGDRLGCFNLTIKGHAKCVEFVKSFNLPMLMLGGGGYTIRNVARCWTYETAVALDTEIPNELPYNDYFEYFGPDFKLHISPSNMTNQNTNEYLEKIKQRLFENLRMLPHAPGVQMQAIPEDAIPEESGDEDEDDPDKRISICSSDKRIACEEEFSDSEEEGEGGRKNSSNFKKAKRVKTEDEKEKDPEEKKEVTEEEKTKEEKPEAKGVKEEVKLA
T2 sequence (Q92769 whole entry): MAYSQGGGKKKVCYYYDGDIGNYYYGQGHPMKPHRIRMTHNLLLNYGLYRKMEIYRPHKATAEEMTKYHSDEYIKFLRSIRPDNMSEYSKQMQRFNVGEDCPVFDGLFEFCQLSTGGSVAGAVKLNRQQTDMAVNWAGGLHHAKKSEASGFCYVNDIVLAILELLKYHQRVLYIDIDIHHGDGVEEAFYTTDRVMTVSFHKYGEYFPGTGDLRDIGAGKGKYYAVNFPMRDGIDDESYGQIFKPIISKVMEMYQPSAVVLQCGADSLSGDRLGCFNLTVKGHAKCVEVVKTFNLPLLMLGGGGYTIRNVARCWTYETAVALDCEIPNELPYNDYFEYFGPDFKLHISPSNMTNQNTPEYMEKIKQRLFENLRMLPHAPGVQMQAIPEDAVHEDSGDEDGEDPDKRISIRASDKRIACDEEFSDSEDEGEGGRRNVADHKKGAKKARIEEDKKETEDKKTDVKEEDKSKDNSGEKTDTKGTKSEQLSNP
T3 sequence (Q9UKV0 whole entry): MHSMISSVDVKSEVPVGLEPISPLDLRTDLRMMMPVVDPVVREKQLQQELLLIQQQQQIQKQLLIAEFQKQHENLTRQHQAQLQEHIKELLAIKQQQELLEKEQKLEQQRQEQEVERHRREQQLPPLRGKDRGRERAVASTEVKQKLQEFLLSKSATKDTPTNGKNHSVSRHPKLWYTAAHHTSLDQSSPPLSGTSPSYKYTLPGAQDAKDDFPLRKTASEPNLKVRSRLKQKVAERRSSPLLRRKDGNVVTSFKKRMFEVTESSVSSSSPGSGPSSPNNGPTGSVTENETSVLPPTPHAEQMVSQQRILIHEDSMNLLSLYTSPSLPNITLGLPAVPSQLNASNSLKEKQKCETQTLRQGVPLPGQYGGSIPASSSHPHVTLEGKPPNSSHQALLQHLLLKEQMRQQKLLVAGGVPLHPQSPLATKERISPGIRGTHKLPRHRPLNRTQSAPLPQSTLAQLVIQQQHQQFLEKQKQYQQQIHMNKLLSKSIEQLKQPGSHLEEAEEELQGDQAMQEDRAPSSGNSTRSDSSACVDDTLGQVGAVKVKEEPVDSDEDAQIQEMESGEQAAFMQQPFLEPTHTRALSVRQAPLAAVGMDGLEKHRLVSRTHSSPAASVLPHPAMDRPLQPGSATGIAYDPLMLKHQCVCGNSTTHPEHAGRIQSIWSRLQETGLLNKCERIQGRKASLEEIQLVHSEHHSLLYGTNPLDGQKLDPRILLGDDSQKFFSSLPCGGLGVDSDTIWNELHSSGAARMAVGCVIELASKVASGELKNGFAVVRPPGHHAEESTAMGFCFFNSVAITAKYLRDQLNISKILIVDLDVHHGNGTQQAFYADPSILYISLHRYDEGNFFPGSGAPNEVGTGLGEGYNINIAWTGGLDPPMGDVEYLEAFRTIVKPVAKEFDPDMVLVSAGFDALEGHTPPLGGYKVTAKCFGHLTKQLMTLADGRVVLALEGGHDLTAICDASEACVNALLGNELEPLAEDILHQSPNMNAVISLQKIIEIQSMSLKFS

O=C(CCCCCCC(=O)Nc1ccc(Cl)c(C(=O)Nc2ccc(NC(=O)c3cc(Cl)ccc3Cl)cc2)c1)NO [IHR-SAHA]
HDAC Activity (Fluorescent counts) (HDAC1; HDAC1, WW01 0 Log nM): 31058 Fluorescent counts and 32831 Fluorescent counts | HDAC Activity (Fluorescent counts) (HDAC1; HDAC1, WW01 0.5 Log nM): 31900 Fluorescent counts and 30926 Fluorescent counts | HDAC Activity (Fluorescent counts) (HDAC1; HDAC1, WW01 1 Log nM): 29505 Fluorescent counts and 28223 Fluorescent counts | HDAC Activity (Fluorescent counts) (HDAC1; HDAC1, WW01 1.5 Log nM): 27089 Fluorescent counts and 26820 Fluorescent counts | HDAC Activity (Fluorescent counts) (HDAC1; HDAC1, WW01 2 Log nM): 21883 Fluorescent counts and 21225 Fluorescent counts | HDAC Activity (Fluorescent counts) (HDAC1; HDAC1, WW01 2.5 Log nM): 19997 Fluorescent counts and 14409 Fluorescent counts | HDAC Activity (Fluorescent counts) (HDAC1; HDAC1, WW01 3 Log nM): 9008 Fluorescent counts and 8923 Fluorescent counts | HDAC Activity (Fluorescent counts) (HDAC1; HDAC1, WW01 3.5 Log nM): 7360 Fluorescent counts and 7292 Fluorescent counts | HDAC Activity (Fluorescent counts) (HDAC1; HDAC1, WW01 4 Log nM): 6195 Fluorescent counts and 6043 Fluorescent counts | HDAC Activity (Fluorescent counts) (HDAC1; HDAC1, WW01 -0.5 Log nM): 31660 Fluorescent counts and 32681 Fluorescent counts | pIC50 (HDAC1; [4]): 6.55 | HDAC Activity (Fluorescent counts) (HDAC2; HDAC2, WW01 0 Log nM): 25941 Fluorescent counts and 27493 Fluorescent counts | HDAC Activity (Fluorescent counts) (HDAC2; HDAC2, WW01 0.5 Log nM): 25227 Fluorescent counts and 26727 Fluorescent counts | HDAC Activity (Fluorescent counts) (HDAC2; HDAC2, WW01 1 Log nM): 25275 Fluorescent counts and 25129 Fluorescent counts | HDAC Activity (Fluorescent counts) (HDAC2; HDAC2, WW01 1.5 Log nM): 23536 Fluorescent counts and 23240 Fluorescent counts | HDAC Activity (Fluorescent counts) (HDAC2; HDAC2, WW01 2 Log nM): 22337 Fluorescent counts and 21686 Fluorescent counts | HDAC Activity (Fluorescent counts) (HDAC2; HDAC2, WW01 2.5 Log nM): 18050 Fluorescent counts and 16002 Fluorescent counts | HDAC Activity (Fluorescent counts) (HDAC2; HDAC2, WW01 3 Log nM): 12392 Fluorescent counts and 11718 Fluorescent counts | HDAC Activity (Fluorescent counts) (HDAC2; HDAC2, WW01 3.5 Log nM): 9603 Fluorescent counts and 9800 Fluorescent counts | HDAC Activity (Fluorescent counts) (HDAC2; HDAC2, WW01 4 Log nM): 7673 Fluorescent counts and 7404 Fluorescent counts | HDAC Activity (Fluorescent counts) (HDAC2; HDAC2, WW01 -0.5 Log nM): 26601 Fluorescent counts and 28049 Fluorescent counts | pIC50 (HDAC2; [4]): 6.13 | HDAC Activity (Fluorescent counts) (HDAC9; HDAC9, WW01 0 Log nM): 15707 Fluorescent counts and 17505 Fluorescent counts | HDAC Activity (Fluorescent counts) (HDAC9; HDAC9, WW01 0.5 Log nM): 15735 Fluorescent counts and 16677 Fluorescent counts | HDAC Activity (Fluorescent counts) (HDAC9; HDAC9, WW01 1 Log nM): 15823 Fluorescent counts and 16968 Fluorescent counts | HDAC Activity (Fluorescent counts) (HDAC9; HDAC9, WW01 1.5 Log nM): 15598 Fluorescent counts and 16390 Fluorescent counts | HDAC Activity (Fluorescent counts) (HDAC9; HDAC9, WW01 2 Log nM): 15941 Fluorescent counts and 16116 Fluorescent counts | HDAC Activity (Fluorescent counts) (HDAC9; HDAC9, WW01 2.5 Log nM): 14685 Fluorescent counts and 15111 Fluorescent counts | HDAC Activity (Fluorescent counts) (HDAC9; HDAC9, WW01 3 Log nM): 14898 Fluorescent counts and 14972 Fluorescent counts | HDAC Activity (Fluorescent counts) (HDAC9; HDAC9, WW01 3.5 Log nM): 13364 Fluorescent counts and 15040 Fluorescent counts | HDAC Activity (Fluorescent counts) (HDAC9; HDAC9, WW01 4 Log nM): 14972 Fluorescent counts and 13303 Fluorescent counts | HDAC Activity (Fluorescent counts) (HDAC9; HDAC9, WW01 -0.5 Log nM): 15619 Fluorescent counts and 16563 Fluorescent counts | pIC50 (HDAC9; [4]): < 5.00 | pIC50 [1]: 8.52 | pIC50 [2]: 5.89 | GLI1 binding to immobilized oligos with consensus GLI binding sequence [3]: loss of GLI1 binding

Source: PMC5773580, “A synthetic combinatorial approach to disabling deviant Hedgehog signaling” (Scientific Reports, 2018)
